Experimental data taken from patent US4539331A, “Imidazole carboxamide derivatives and pharmaceutical compositions thereof” (priority 1981, dated 1985).
Where two headings read alike, the source gives them in different places. Values belong to the compound of their own block, whether it stands above or below them.

Legend:
writhing = writhing test (analgesic activity); format: in vivo, mouse; conditions: for ED50: Mus musculus, ip
beer yeast induced fever = beer yeast induced fever (antipyretic activity); format: in vivo
gastric mucous = format: in vivo, rat
Source text: In the gastric tolerance test, the product was compared with aspirin and phenylbutazone on the rat, with oral administration.

carrageenin oedema = carrageenin oedema method (anti-inflammatory activity); format: in vivo; conditions: Rattus norvegicus; oral
acute toxicity, mouse = conditions: in vivo
Source text: (§1) The acute toxicity in the rat and mouse is low

solubility = format: physicochemical
acute toxicity, rat = conditions: in vivo
Source text: as §1

SMILES: CC(=O)Oc1ccccc1C(=O)O [Aspirin, reference compound]
- ED50 (writhing): 45 mg/kg
- ED50 (beer yeast induced fever; po): 140 mg/kg
- gastric alterations (gastric mucous; oral, 1000 mg/kg): haemorrhage spots, congestion and oedema

SMILES: Cc1ccc(NC(=O)c2nc[nH]c2C)cc1Cl [Example 1, N-(3-chloro-4-methylphenyl)-5-methyl-4-imidazolecarboxamide]
- ED50 (writhing; read-out: ED50): 30 mg/kg
- analgesic action relative to aspirin (writhing; relative to aspirin): 1.5 times
- ED50 (carrageenin oedema): 60 mg/kg
- LD50 (acute toxicity, mouse; ip): 700 mg/kg
- LD50 (acute toxicity, mouse; oral): > 8000 mg/kg
- solubility in acetone (solubility; acetone): soluble
- solubility in an acid aqueous medium (solubility; acid aqueous medium): sparingly soluble
- solubility in chloroform (solubility; chloroform): moderately soluble
- solubility in ethanol (solubility; ethanol): soluble
- solubility in isopropanol (solubility; isopropanol): soluble
- solubility in methanol (solubility; methanol): soluble
- solubility in toluene (solubility; toluene): insoluble
- solubility in water (solubility; water): insoluble
- LD50 (acute toxicity, rat; ip): 560 mg/kg
- LD50 (acute toxicity, rat; oral): > 12000 mg/kg
- ED50 (beer yeast induced fever; oral, read-out: ED50): 48 mg/kg
- antipyretic activity relative to aspirin (beer yeast induced fever; relative to aspirin): three times that of aspirin
- antipyretic activity relative to pyramidon (beer yeast induced fever; relative to pyramidon): slightly superior to that of pyramidon

SMILES: COc1ccc(Cl)cc1NC(=O)c1nc[nH]c1C [Example 5a, N-(5-chloro-2-methoxyphenyl)-5-methyl-4-imidazolecarboxamide]
- ED50 (carrageenin oedema): 78 mg/kg

SMILES: Cc1cc(NC(=O)c2nc[nH]c2C)ccc1[N+](=O)[O-] [Example 5b, N-(3-methyl-4-nitrophenyl)-5-methyl-4-imidazolecarboxamide]
- ED50 (writhing; read-out: ED50): 35 mg/kg
- ED50 (beer yeast induced fever; oral, read-out: ED50): 58 mg/kg

SMILES: Cc1ccc(F)cc1NC(=O)c1nc[nH]c1C [Example 5c, N-(5-fluoro-2-methylphenyl)-5-methyl-4-imidazolecarboxamide]
- ED50 (writhing; read-out: ED50): 50 mg/kg

SMILES: Cc1[nH]cnc1C(=O)Nc1ccc(Cl)c([N+](=O)[O-])c1 [Example 5h, N-(4-chloro-3-nitrophenyl)-5-methyl-4-imidazolecarboxamide]
- ED50 (writhing; read-out: ED50): 33 mg/kg

- gastric alterations (gastric mucous; rat, in vivo, po, 200 mg/kg): haemorrhage spots, congestion and oedema
SMILES: CCCCC1C(=O)N(c2ccccc2)N(c2ccccc2)C1=O [Phenylbutazone, reference compound]
- ED50 (carrageenin oedema): 45 mg/kg

SMILES: Cc1c(N(C)C)c(=O)n(-c2ccccc2)n1C [Pyramidon, reference compound]
- ED50 (beer yeast induced fever; oral, read-out: ED50): 55 mg/kg
